# Source: paper PMC10940605, “Design, synthesis and in vitro anticancer activity of some new lomefloxacin derivatives” (Scientific Reports, 2024)
# How the values were obtained:
# RPMI-8226 = assay: NCI-60 SRB screen; assay type: cell-based; conditions: Homo sapiens; RPMI-8226, 10^–5 Molar; read-out: Percent growth inhibition
# CAKI-1 = assay: NCI-60 SRB screen; assay type: cell-based; conditions: Homo sapiens; CAKI-1, 10^–5 Molar; read-out: Percent growth inhibition
# How it was run: (§1)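 DMSO stocks diluted in medium with gentamycin; 10^−5 M final; 48 h, 37 °C, 5% CO2, 100% humidity; TCA fix 60 min 4 °C; SRB 10 min RT; OD […]; % growth inhibition vs Tz and C.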
# HCT-15 = assay: NCI-60 SRB screen; assay type: cell-based; conditions: Homo sapiens; HCT-15, 10^–5 Molar; read-out: Percent growth inhibition
# How it was run: as §1
# RXF 393 = assay: NCI-60 SRB screen; assay type: cell-based; conditions: Homo sapiens, 48 h; RXF 393, 10^–5 Molar; read-out: Percent growth inhibition
# How it was run: as §1
# SK-MEL-28 = assay: NCI-60 SRB screen; assay type: cell-based; conditions: Homo sapiens; SK-MEL-28, 10^–5 Molar; read-out: Percent growth inhibition
# How it was run: as §1
# COLO 205 = assay: NCI-60 SRB screen; assay type: cell-based; conditions: Homo sapiens, 48 h; COLO 205, 10^–5 Molar; read-out: Percent growth inhibition
# HT29 = assay: NCI-60 SRB screen; assay type: cell-based; conditions: Homo sapiens, HT-29; HT29, 10^–5 Molar; read-out: Percent growth inhibition
# SK-OV-3 = assay: NCI-60 SRB screen; assay type: cell-based; conditions: Homo sapiens; SK-OV-3, 10^–5 Molar; read-out: Percent growth inhibition
# TK-10 = assay: NCI-60 SRB screen; assay type: cell-based; conditions: Homo sapiens; TK-10, 10^–5 Molar; read-out: Percent growth inhibition
# DU-145 = assay: NCI-60 SRB screen; assay type: cell-based; conditions: Homo sapiens; DU-145, 10^–5 Molar; read-out: Percent growth inhibition
# topoisomerase IIα = molecular target: T1, topoisomerase IIα (Homo sapiens, UniProt P11388); assay: Topoisomerase ELISA kit inhibitory assay; assay type: biochemical; conditions: four concentrations
# T1 construct: purchased MBS2885049
# T1 sequence (P11388 whole entry): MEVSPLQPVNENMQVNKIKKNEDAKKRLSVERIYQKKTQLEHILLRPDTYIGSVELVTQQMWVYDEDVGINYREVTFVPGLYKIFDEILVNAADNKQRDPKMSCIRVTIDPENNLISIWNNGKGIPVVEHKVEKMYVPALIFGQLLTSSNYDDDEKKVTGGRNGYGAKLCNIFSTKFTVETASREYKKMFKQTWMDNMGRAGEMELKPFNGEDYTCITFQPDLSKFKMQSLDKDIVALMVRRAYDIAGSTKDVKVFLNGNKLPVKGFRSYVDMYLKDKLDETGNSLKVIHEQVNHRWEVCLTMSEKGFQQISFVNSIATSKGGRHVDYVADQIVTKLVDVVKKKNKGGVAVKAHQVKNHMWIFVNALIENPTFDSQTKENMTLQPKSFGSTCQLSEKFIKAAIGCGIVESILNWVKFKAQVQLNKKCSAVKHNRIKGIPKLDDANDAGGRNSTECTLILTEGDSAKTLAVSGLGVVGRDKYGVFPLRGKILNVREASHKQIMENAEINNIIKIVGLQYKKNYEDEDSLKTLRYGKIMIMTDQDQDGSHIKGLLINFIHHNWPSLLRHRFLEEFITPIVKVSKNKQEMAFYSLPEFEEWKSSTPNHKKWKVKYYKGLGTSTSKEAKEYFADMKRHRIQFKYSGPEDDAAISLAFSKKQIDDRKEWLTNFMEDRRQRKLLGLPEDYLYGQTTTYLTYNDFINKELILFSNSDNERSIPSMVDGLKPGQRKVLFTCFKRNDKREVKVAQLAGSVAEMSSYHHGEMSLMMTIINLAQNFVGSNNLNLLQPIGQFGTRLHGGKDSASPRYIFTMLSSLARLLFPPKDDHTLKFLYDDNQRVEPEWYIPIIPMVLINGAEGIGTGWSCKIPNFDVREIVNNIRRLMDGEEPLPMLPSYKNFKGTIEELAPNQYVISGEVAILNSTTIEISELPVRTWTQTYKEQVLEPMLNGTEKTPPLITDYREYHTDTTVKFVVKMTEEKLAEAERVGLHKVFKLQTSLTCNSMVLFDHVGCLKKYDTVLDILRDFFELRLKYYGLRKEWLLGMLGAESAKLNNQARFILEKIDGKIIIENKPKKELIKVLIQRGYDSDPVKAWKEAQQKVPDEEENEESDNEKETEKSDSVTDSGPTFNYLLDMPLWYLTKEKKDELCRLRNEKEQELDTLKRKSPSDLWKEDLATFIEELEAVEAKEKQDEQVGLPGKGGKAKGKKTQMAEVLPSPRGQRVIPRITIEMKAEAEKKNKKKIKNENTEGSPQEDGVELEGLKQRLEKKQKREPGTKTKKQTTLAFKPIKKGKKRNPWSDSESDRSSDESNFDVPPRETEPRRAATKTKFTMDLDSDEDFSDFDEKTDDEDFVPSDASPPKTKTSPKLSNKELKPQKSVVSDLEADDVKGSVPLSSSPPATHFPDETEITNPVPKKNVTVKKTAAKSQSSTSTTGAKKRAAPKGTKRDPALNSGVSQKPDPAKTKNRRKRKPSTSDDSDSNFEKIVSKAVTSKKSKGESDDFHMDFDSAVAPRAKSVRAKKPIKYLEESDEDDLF
# Experimental: Four concentrations were used and IC50 was calculated.
# Compound 3a,b,c,e were evaluated for topoisomerase IIα inhibitory activity utilizing the human DNA topoisomerase ELISA kit (MBS2885049) and following the provided procedure: • Standards and the tested compound were dissolved in sample diluent and tenfold serial dilution was achieved. • Biotin-conjugated antibody and avidin conjugated Horseradish Peroxidase (HRP-avidin) were diluted to tenfolds. • 100 µL of each concentration of standard or test compounds were added to each well and incubated at 37 °C for 1 h. • Removal of the liquid in each well was done. • To each well 100 µL of Biotin-conjugated antibody solution was added followed by incubation for 1 h at 37 °C. • The microtiter plate was allowed to aspirate and washed 3 times. • 100 µL of avidin conjugated Horseradish Peroxidase (HRP-avidin) solution was added to each well and incubatation for 1 h at 37 °C was achieved. • The plate was aspirated and washed 5 times. • Addition of 90 µL of 3,3′,5,5′-tetramethylbenzidine (TMB) substrate to each well followed by plate incubated for 30 min at 37 °C and protection from light was done. • 50 µL stop solution was added.
# HL-60(TB) = assay: NCI-60 SRB screen; assay type: cell-based; conditions: Homo sapiens, 10^–5 Molar, read-out: Percent growth inhibition
# SK-MEL-2 = assay: NCI-60 SRB screen; assay type: cell-based; conditions: Homo sapiens; SK-MEL-2, 10^–5 Molar; read-out: Percent growth inhibition
# How it was run: as §1
# UACC-257 = assay: NCI-60 SRB screen; assay type: cell-based; conditions: Homo sapiens; UACC-257, 10^–5 Molar; read-out: Percent growth inhibition
smiles,measurement,setting,value
"CCn1cc(C(=O)NN=Cc2cccs2)c(=O)c2cc(F)c(N3CCNC(C)C3)c(F)c21 (centres unmarked) [Compound 3e, 1-Ethyl-6,8-difluoro-7-(3-methylpiperazin-1-yl)-4-oxo-N'-(thiophen-2-ylmethylene)-1,4-dihydroquinoline-3-carbohydrazide]",inhibition at 10 µM,RPMI-8226,137%
same,inhibition at 10 µM,CAKI-1,53.5%
same,inhibition at 10 µM,HCT-15,75%
same,inhibition at 10 µM,RXF 393,83.8%
same,inhibition at 10 µM,SK-MEL-28,10.1%
same,inhibition at 10 µM,COLO 205,142%
same,inhibition at 10 µM,HT29,177%
same,inhibition at 10 µM,SK-OV-3,9.74%
same,inhibition at 10 µM,TK-10,16.1%
same,inhibition at 10 µM,DU-145,51.7%
same,IC50,topoisomerase IIα,980 nM
"CCn1cc(C(=O)NN=Cc2ccc(Br)cc2)c(=O)c2cc(F)c(N3CCNC(C)C3)c(F)c21 (centres unmarked) [Compound 3c, N'-(4-Bromobenzylidene)-1-ethyl-6,8-difluoro-7-(3-methylpiperazin-1-yl)-4-oxo-1,4-dihydroquinoline-3-carbohydrazide]",inhibition at 10 µM,HL-60(TB),51.3%
same,inhibition at 10 µM,RPMI-8226,115%
same,inhibition at 10 µM,CAKI-1,31.5%
same,inhibition at 10 µM,HCT-15,119%
same,inhibition at 10 µM,RXF 393,38.8%
same,inhibition at 10 µM,SK-MEL-28,8.78%
same,inhibition at 10 µM,SK-MEL-2,2.32%
same,inhibition at 10 µM,COLO 205,67.9%
same,inhibition at 10 µM,HT29,132%
same,inhibition at 10 µM,TK-10,0.41%
same,inhibition at 10 µM,DU-145,68.6%
same,IC50,topoisomerase IIα,1680 nM
"CCn1cc(C(=O)O)c(=O)c2cc(F)c(N3CCN(CC(=O)Nc4ccccc4)C(C)C3)c(F)c21 (centres unmarked) [Compound 5a, 1-Ethyl-6,8-difluoro-7-(3-methyl-4-(2-oxo-2-(phenylamino)ethyl)piperazin-1-yl)-4-oxo-1,4-dihydroquinoline-3-carboxylic acid]",inhibition at 10 µM,CAKI-1,13%
same,inhibition at 10 µM,SK-MEL-28,3%
same,inhibition at 10 µM,SK-OV-3,9.27%
"CCn1cc(C(=O)NN=Cc2ccccc2)c(=O)c2cc(F)c(N3CCNC(C)C3)c(F)c21 (centres unmarked) [Compound 3a, N'-Benzylidene-1-ethyl-6,8-difluoro-7-(3-methylpiperazin-1-yl)-4-oxo-1,4-dihydroquinoline-3-carbohydrazide]",inhibition at 10 µM,HL-60(TB),81.9%
same,inhibition at 10 µM,RPMI-8226,142%
same,inhibition at 10 µM,CAKI-1,54.2%
same,inhibition at 10 µM,HCT-15,186%
same,inhibition at 10 µM,RXF 393,161%
same,inhibition at 10 µM,SK-MEL-28,179%
same,inhibition at 10 µM,SK-MEL-2,6.57%
same,inhibition at 10 µM,COLO 205,174%
same,inhibition at 10 µM,HT29,192%
same,inhibition at 10 µM,UACC-257,60.4%
same,inhibition at 10 µM,TK-10,17.3%
same,inhibition at 10 µM,DU-145,188%
same,IC50,topoisomerase IIα,1740 nM
"CCn1cc(C(=O)O)c(=O)c2cc(F)c(N3CCN(C(=O)c4ccc(Cl)cc4)C(C)C3)c(F)c21 (centres unmarked) [Compound 7c, 7-(4-(4-Chlorobenzoyl)-3-methylpiperazin-1-yl)-1-ethyl-6,8-difluoro-4-oxo-1,4-dihydroquinoline-3-carboxylic acid]",inhibition at 10 µM,CAKI-1,14.9%
same,inhibition at 10 µM,RXF 393,0.35%
same,inhibition at 10 µM,SK-MEL-28,2.92%
same,inhibition at 10 µM,SK-OV-3,2.14%
"CCn1cc(C(=O)O)c(=O)c2cc(F)c(N3CCN(CC(=O)Nc4ccc(Cl)cc4)C(C)C3)c(F)c21 (centres unmarked) [Compound 5b, 7-(4-(2-((4-Chlorophenyl)amino)-2-oxoethyl)-3-methylpiperazin-1-yl)-1-ethyl-6,8-difluoro-4-oxo-1,4-dihydroquinoline-3-carboxylic acid]",inhibition at 10 µM,CAKI-1,13.7%
same,inhibition at 10 µM,HCT-15,1.39%
same,inhibition at 10 µM,RXF 393,0.61%
same,inhibition at 10 µM,SK-MEL-28,6.48%
same,inhibition at 10 µM,SK-OV-3,9.6%
"CCn1cc(C(=O)NN=Cc2cccc(F)c2)c(=O)c2cc(F)c(N3CCNC(C)C3)c(F)c21 (centres unmarked) [Compound 3b, 1-Ethyl-6,8-difluoro-N′-(3-fluorobenzylidene)-7-(3-methylpiperazin-1-yl)-4-oxo-1,4-dihydroquinoline-3-carbohydrazide]",inhibition at 10 µM,HL-60(TB),34.5%
same,inhibition at 10 µM,RPMI-8226,142%
same,inhibition at 10 µM,CAKI-1,33.3%
same,inhibition at 10 µM,HCT-15,182%
same,inhibition at 10 µM,RXF 393,122%
same,inhibition at 10 µM,SK-MEL-28,164%
same,inhibition at 10 µM,COLO 205,82.5%
same,inhibition at 10 µM,HT29,187%
same,inhibition at 10 µM,UACC-257,11%
same,inhibition at 10 µM,DU-145,188%
same,IC50,topoisomerase IIα,2410 nM
"CCn1cc(C(=O)O)c(=O)c2cc(F)c(N3CCN(C(=O)c4ccccc4)C(C)C3)c(F)c21 (centres unmarked) [Compound 7a, 7-(4-Benzoyl-3-methylpiperazin-1-yl)-1-ethyl-6,8-difluoro-4-oxo-1,4-dihydroquinoline-3-carboxylic acid]",inhibition at 10 µM,CAKI-1,15.4%
same,inhibition at 10 µM,RXF 393,6.68%
same,inhibition at 10 µM,SK-MEL-28,4.44%
same,inhibition at 10 µM,SK-MEL-2,0.16%
same,inhibition at 10 µM,TK-10,13%
"CCn1cc(C(=O)O)c(=O)c2cc(F)c(N3CCN(C(=O)c4ccc([N+](=O)[O-])cc4)C(C)C3)c(F)c21 (centres unmarked) [Compound 7d, 1-Ethyl-6,8-difluoro-7-(3-methyl-4-(4-nitrobenzoyl)piperazin-1-yl)-4-oxo-1,4-dihydroquinoline-3-carboxylic acid]",inhibition at 10 µM,HL-60(TB),24.7%
same,inhibition at 10 µM,CAKI-1,17.6%
"CCn1cc(C(=O)NN=Cc2cccnc2)c(=O)c2cc(F)c(N3CCNC(C)C3)c(F)c21 (centres unmarked) [Compound 3d, 1-Ethyl-6,8-difluoro-7-(3-methylpiperazin-1-yl)-4-oxo-N'-(pyridin-3-ylmethylene)-1,4-dihydroquinoline-3-carbohydrazide]",inhibition at 10 µM,HL-60(TB),30.5%
same,inhibition at 10 µM,RPMI-8226,13.4%
same,inhibition at 10 µM,CAKI-1,67.8%
same,inhibition at 10 µM,HCT-15,1.76%
same,inhibition at 10 µM,RXF 393,40.7%
same,inhibition at 10 µM,SK-MEL-28,23.1%
same,inhibition at 10 µM,SK-MEL-2,44.1%
same,inhibition at 10 µM,COLO 205,46.8%
same,inhibition at 10 µM,HT29,56.3%
same,inhibition at 10 µM,UACC-257,1.56%
same,inhibition at 10 µM,SK-OV-3,16.2%
same,inhibition at 10 µM,TK-10,29%
same,inhibition at 10 µM,DU-145,57.5%
"CCn1cc(C(=O)O)c(=O)c2cc(F)c(N3CCN(C(=O)c4ccc(Br)cc4)C(C)C3)c(F)c21 (centres unmarked) [Compound 7b, 7-(4-(4-Bromobenzoyl)-3-methylpiperazin-1-yl)-1-ethyl-6,8-difluoro-4-oxo-1,4-dihydroquinoline-3-carboxylic acid]",inhibition at 10 µM,CAKI-1,13.6%
same,inhibition at 10 µM,HCT-15,1.3%
same,inhibition at 10 µM,RXF 393,6.35%
same,inhibition at 10 µM,SK-OV-3,1.83%
